Laboratory results taken from ChEMBL document CHEMBL1150824, “New xenicane diterpenoids from the gorgonian Acalycigorgia inermis” (2001).
In brackets after ≈: the same amount, converted by molar mass. Blank lines part the entries; values can stand above or below the compound they belong to. Activity calls are given as the source filed them. The calls are words filed in the database; no cut-off is given here.

Legend:
[1] = Inhibition of FPTase at 10 ug/mL
HUVEC [2] = test: Antiangiogenic activity in HUVEC assessed as inhibition of bFGF-induced tube formation at 10 ug/mL; format: functional, cell-based; settings: Homo sapiens
HUVEC [3] = test: Antiangiogenic activity in HUVEC assessed as inhibition of bFGF-induced tube formation up to 20 ug/mL; format: functional, cell-based; settings: Homo sapiens
[4] = Inhibition of FPTase up to 20 ug/mL
K562 = test: Cytotoxicity against human K562 cells; format: functional; settings: read-out: LC50 (the source's name)

SMILES: C=C1CC/C=C(\C)CC[C@@H]2[C@H](C/C=C/C(C)(C)O)C(=O)OC[C@@H]12 [ACALYCIXENIOLIDE J]
Activity [1]: inactive
Activity (HUVEC [2]): inactive
Activity (HUVEC [3]): inactive
Activity [4]: inactive
CC50 (K562): 2 µg/mL (≈ 6.28 µM)

SMILES: C=C1CC/C=C(\C)CC[C@@H]2[C@H](CC/C=C/CO)C(=O)OC[C@@H]12 [ACALYCIXENIOLIDE L]
Activity [1]: inactive
Activity (HUVEC [2]): inactive
Activity (HUVEC [3]): inactive
Activity [4]: inactive
CC50 (K562): 1.5 µg/mL (≈ 4.93 µM)

SMILES: C=C1CC/C=C(\C)CC[C@@H]2[C@H](CC/C=C(\C)CO)C(=O)OC[C@@H]12 [ACALYCIXENIOLIDE I]
Activity [1]: inactive
Activity (HUVEC [2]): inactive
Activity (HUVEC [3]): inactive
Activity [4]: inactive
CC50 (K562): 1.2 µg/mL (≈ 3.77 µM)

SMILES: C=C1CC/C=C(\C)CC[C@@H]2/C(=C\C=C\C(C)(C)O)C(=O)OC[C@@H]12 [9-DEOXYXENIOLIDE A]
Activity [1]: inactive
Activity (HUVEC [2]): inactive
Activity (HUVEC [3]): inactive
Activity [4]: inactive
CC50 (K562): 0.04 µg/mL (≈ 0.126 µM)

Activity [1]: inactive
Activity [4]: inactive
SMILES: C=C1CC[C@@H]2O[C@@]2(C)CC[C@@H]2[C@H](CCC=C(C)C)C(=O)OC[C@@H]12
Activity (HUVEC [2]): inactive
Activity (HUVEC [3]): inactive

SMILES: C=C1CC/C=C(\C)CC[C@@H]2[C@H](CC/C=C\CO)C(=O)OC[C@@H]12 [ACALYCIXENIOLIDE K]
Activity [1]: inactive
Activity (HUVEC [2]): inactive
Activity (HUVEC [3]): inactive
Activity [4]: inactive
CC50 (K562): 1.8 µg/mL (≈ 5.91 µM)

SMILES: C=C1CC[C@@H]2O[C@@]2(C)CC[C@@H]2[C@H](CC/C=C(\C)C(=O)OC)C(=O)OC[C@@H]12 [ACALYCIXENIOLIDE H]
Activity [1]: inactive
Activity (HUVEC [2]): inactive
Activity (HUVEC [3]): inactive
Activity [4]: inactive
CC50 (K562): 3.9 µg/mL (≈ 10.8 µM)

inhibition [1]: 82%
SMILES: C=C=CCC(OC(C)=O)C1=CO[C@H](OC(C)=O)[C@H]2C(=C)CC[C@@H]3O[C@@]3(C)CC[C@H]12 (stereo partly specified)
Activity (HUVEC [2]): Active
